Results published in patent US10364216B2, “Alkenyl sulfate ester or salt thereof” (Kao Corporation, priority 2013, dated 2019).
Where a name gives a salt, the structure may show the parent alone.

Target: T1, ENaC complex (human ENaCα, β and γ) (Homo sapiens, UniProt P37088+P51168+P51170)
T1 construct: host or cells: Xenopus oocytes injected with cRNA
T1 sequence (P37088 1-669): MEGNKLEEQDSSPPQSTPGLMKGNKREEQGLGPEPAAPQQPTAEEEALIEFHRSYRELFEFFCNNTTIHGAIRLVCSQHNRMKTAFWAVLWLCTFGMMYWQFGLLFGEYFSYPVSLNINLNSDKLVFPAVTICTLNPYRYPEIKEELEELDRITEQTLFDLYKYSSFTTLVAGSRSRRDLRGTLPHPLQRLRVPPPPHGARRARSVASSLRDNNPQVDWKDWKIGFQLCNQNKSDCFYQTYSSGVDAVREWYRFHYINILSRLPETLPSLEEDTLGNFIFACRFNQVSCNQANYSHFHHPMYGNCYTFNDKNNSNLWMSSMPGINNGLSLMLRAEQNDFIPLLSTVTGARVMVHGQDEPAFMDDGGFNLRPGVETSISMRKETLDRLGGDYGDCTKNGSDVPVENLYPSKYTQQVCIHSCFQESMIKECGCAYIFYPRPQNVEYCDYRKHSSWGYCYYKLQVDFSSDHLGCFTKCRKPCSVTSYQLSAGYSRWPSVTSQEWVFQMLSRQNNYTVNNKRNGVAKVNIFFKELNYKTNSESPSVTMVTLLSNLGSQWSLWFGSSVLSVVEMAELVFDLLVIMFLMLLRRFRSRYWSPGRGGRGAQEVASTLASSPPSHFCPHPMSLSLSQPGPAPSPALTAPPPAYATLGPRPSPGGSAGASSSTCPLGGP
T1 sequence (P51168 1-640): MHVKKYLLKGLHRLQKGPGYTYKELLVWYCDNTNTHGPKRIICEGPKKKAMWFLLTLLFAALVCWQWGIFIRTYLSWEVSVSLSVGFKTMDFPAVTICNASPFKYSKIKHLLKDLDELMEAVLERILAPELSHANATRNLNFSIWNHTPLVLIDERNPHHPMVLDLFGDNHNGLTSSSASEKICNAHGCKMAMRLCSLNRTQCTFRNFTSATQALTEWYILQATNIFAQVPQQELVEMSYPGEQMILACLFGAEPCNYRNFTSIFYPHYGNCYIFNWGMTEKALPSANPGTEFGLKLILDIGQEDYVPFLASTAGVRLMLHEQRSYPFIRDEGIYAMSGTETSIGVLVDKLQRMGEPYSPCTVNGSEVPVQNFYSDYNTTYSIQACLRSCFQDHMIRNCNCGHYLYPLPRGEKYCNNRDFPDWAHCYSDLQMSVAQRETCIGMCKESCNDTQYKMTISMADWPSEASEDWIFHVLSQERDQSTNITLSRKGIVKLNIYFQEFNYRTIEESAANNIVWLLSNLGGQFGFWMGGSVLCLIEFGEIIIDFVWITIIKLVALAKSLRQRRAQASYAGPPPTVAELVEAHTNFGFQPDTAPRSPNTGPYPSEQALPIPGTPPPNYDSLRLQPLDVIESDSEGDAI
T1 sequence (P51170 1-649): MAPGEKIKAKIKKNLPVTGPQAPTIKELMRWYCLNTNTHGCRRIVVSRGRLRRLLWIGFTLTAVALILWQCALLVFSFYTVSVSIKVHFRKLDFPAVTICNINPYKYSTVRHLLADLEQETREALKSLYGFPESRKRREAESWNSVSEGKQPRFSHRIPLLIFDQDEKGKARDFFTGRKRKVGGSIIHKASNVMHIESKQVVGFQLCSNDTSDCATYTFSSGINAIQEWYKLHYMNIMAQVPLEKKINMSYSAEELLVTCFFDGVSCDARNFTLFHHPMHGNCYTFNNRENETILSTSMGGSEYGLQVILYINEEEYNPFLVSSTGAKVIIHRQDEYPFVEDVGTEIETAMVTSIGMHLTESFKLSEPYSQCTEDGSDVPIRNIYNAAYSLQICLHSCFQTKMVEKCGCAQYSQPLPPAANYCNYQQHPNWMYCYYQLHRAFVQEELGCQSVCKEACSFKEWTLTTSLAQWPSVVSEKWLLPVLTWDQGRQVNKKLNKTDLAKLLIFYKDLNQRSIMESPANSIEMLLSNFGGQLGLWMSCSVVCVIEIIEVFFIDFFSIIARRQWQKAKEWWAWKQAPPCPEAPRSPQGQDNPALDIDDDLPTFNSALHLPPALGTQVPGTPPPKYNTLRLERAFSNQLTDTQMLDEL
Assay: ENaC inhibition activity, two-electrode voltage clamp in Xenopus oocytes
Type: cell-based
Details: 3 to 30 mM; membrane potential −60 mV; 115 mM NaCl solution; FIG. 1
Method: Inhibition activity of ENaC expressed in Xenopus oocytes was measured according to the method described in “The journal of biological chemistry, 284 (2): pages 792-798 (2009)”. Specifically, trans-3-octenyl sulfate was added to oocytes expressed with ENaC complex, and the activity of ENaC was analyzed electrophysiologically in accordance with the procedures described below.
First, DNA sequences encoding human ENaCα, β and γ, respectively were obtained by carrying out PCR using a plasmid vector on which the same gene was cloned (manufactured by Clontech Laboratories, Inc.) as a template. The obtained PCR amplification fragment was integrated into a transcription vector pSP64 (manufactured by Promega Corporation), and pSP64/ENaCα, pSP64/ENaCβ and pSP64/ENaCγ were manufactured, respectively.
pSP64/ENaCα and pSP64/ENaCγ were digested with EcoRI, and pSP64/ENaCβ was digested with PvuII, respectively, whereby linearize the plasmid DNA. […]
The obtained aqueous solutions of cRNA encoding ENaCα, ENaCβ and ENaCγ respectively were mixed in the same quantity, and injected by 50 ng per one Xenopus oocyte. […]
Two micro-glass electrodes were inserted into the oocyte, and the membrane potential was fixed at −60 mV. At this time, Na^+ ion influx induced by ENaC complex in a constantly active state was measured with replacement to change of the current amount. […]

## CCCC/C=C/CCOS(=O)(=O)O [trans-3-octenyl sulfate]
  Effect on inward current of ENaC expressing oocytes: inhibited inward current of ENaC expressing oocytes concentration-dependently
